By Km is commonly meant the substrate concentration at which the rate is half of its maximum.

For one experiment, the system named is T1, rDlP5βR2.
T1 construct: gene P5βR2; recombinant in E. coli SoluBL21, pDEST17 vector, His-tagged, IMAC purified; cloned with primers deduced from D. purpurea P5βR2
The experiment can be described thus: NADPH consumption at […] nm, spectrophotometric. The class given is biochemical, Digitalis lanata. Conditions: 0.2 mM NADPH, 40 °C, substrate 0.01-1.6 mM.

The target of another experiment is T2, rDlP5βR1 (Digitalis lanata, UniProt Q6PQJ9).
T2 construct: recombinant in E. coli, pQE30 vector (Herl et al. 2006), His-tagged, IMAC purified
T2 sequence (Q6PQJ9 whole entry): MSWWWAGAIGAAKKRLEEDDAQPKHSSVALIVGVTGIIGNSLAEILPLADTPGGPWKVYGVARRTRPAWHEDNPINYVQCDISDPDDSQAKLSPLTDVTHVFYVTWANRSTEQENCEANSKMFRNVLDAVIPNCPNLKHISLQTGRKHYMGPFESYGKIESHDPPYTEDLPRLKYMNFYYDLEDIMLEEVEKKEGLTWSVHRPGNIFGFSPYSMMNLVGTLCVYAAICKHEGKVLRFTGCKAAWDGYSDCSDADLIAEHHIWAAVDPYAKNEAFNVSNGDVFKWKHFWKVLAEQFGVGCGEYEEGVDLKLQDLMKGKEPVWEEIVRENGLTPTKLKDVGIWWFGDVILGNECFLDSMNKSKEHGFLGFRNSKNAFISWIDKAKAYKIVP
The experiment is described as follows: NADPH consumption at […] nm, spectrophotometric. The class given is biochemical. Conditions: 0.2 mM NADPH, 40 °C, substrate 0.01-1.6 mM.

Regarding `C=CC(C)=O` [methyl vinyl ketone], the Km in the experiment on rDlP5βR2 worked out at 210 µM; on rDlP5βR1, 270 µM. For the compound `CC(=O)[C@H]1CC[C@H]2[C@@H]3CCC4=CC(=O)CC[C@]4(C)[C@H]3CC[C@]12C` [progesterone], the Km with rDlP5βR2 was 230 µM.

The values above are taken from article PMC8376734, “RNAi-mediated gene knockdown of progesterone 5β-reductases in Digitalis lanata reduces 5β-cardenolide content” (Plant Cell Reports, 2021).
